Results published in PubChem BioAssay AID330 (DTP/NCI, 2004).
Where “and” joins values, the source holds several entries; their conditions need not be identical. Identical values can stand only once. Toxic doses and inconclusive results are not listed. Bridge positions count the residues as written; N and C are the ends. Square brackets hold non-standard residues; d marks the D form. Peptide text beside a SMILES is read from it. * marks the point of attachment. Cbz = O=C(OCc1ccccc1)*; Ava = NCCCCC(=O)O

Tested on: P388 leukemia ip, CD2F1 mice, survival T/C
Assay: NCI In Vivo Anticancer Drug Screen. Data for tumor model P388 Leukemia (intraperitoneal) in CD2F1 (CDF1) mice
Conditions: endpoint: median survival time, higher = longer survival
Summary of the method: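 Mice carrying the transplanted tumor received test compound or vehicle. Survival was recorded in each group, and the value is the treated-group measurement divided by that of the vehicle-treated control group.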

[1] = dose: 60.0 mg/kg/injection, schedule: Q01DX005 (ip), vehicle: saline with Tween-80
[2] = dose: 120.0 mg/kg/injection, schedule: Q01DX005 (ip), vehicle: saline with Tween-80
[3] = dose: 240.0 mg/kg/injection, schedule: Q01DX005 (ip), vehicle: saline with Tween-80
[4] = dose: 100.0 mg/kg/injection, schedule: Q04DX002 (ip), vehicle: saline with Tween-80
[5] = dose: 200.0 mg/kg/injection, schedule: Q04DX002 (ip), vehicle: saline with Tween-80
[6] = dose: 400.0 mg/kg/injection, schedule: Q04DX002 (ip), vehicle: saline with Tween-80
[7] = dose: 12.5 mg/kg/injection, schedule: Q01DX009 (ip), vehicle: other
[8] = dose: 50.0 mg/kg/injection, schedule: Q01DX009 (ip), vehicle: saline
[9] = dose: 100.0 mg/kg/injection, schedule: Q01DX009 (ip), vehicle: saline
[10] = dose: 200.0 mg/kg/injection, schedule: Q01DX009 (ip), vehicle: saline
[11] = dose: 100.0 mg/kg/injection, schedule: Q01DX009 (ip), vehicle: saline with Tween-80
[12] = dose: 200.0 mg/kg/injection, schedule: Q01DX009 (ip), vehicle: saline with Tween-80
[13] = dose: 50.0 mg/kg/injection, schedule: Q01DX009 (ip), vehicle: Klucel (hydroxypropylcellulose) (HPC)
[14] = dose: 100.0 mg/kg/injection, schedule: Q01DX009 (ip), vehicle: Klucel (hydroxypropylcellulose) (HPC)
[15] = dose: 200.0 mg/kg/injection, schedule: Q01DX009 (ip), vehicle: Klucel (hydroxypropylcellulose) (HPC)
[16] = dose: 400.0 mg/kg/injection, schedule: Q01DX009 (ip), vehicle: saline with Tween-80
[17] = dose: 50.0 mg/kg/injection, schedule: Q01DX005 (ip), vehicle: saline with Tween-80
[18] = dose: 100.0 mg/kg/injection, schedule: Q01DX005 (ip), vehicle: saline with Tween-80
[19] = dose: 200.0 mg/kg/injection, schedule: Q01DX005 (ip), vehicle: saline with Tween-80
[20] = dose: 60.0 mg/kg/injection, schedule: Q01DX005 (ip), vehicle: Klucel (hydroxypropylcellulose) (HPC)
[21] = dose: 120.0 mg/kg/injection, schedule: Q01DX005 (ip), vehicle: Klucel (hydroxypropylcellulose) (HPC)

With `CC(/C=C/c1ccc(Cl)cc1)=N\NC(N)=O` the T/C [1] was 94 % of control, the T/C [2] was 99 % of control and the T/C [3] was 99 % of control.

`CCOC(=O)/C(Cl)=C(\C)Nc1nc2c(ccc3ccccc32)s1` was tested, and the T/C [1] was 98 % of control and the T/C [2] was 90 % of control.

In the case of `CC1NC(=O)C(NC(=O)OCc2ccccc2)COC(=O)C(C(C)C)NC(=O)CCCCNC1=O` (stereo not given) (Cbz-SA[Ava]V; ester 1-C; configuration not given here), the T/C [4] is reported as 100 % of control, the T/C [5] is reported as 104 % of control and the T/C [6] is reported as 104 % of control.

`OCCCCC12CCC(CCCCO)(CC1)CC2` was tested, and the T/C (dose: 100.0 mg/kg/injection, schedule: Q04DX002 (ip), vehicle: Klucel (hydroxypropylcellulose) (HPC)) was 91 % of control and the T/C (dose: 400.0 mg/kg/injection, schedule: Q04DX002 (ip), vehicle: Klucel (hydroxypropylcellulose) (HPC)) was 86 % of control.

For `COc1cc(CC2c3cc(OC)c(OC)cc3CCN2C)c(NC(=O)c2ccc(C(=O)Nc3cc(OC)c(OC)cc3CC3c4cc(OC)c(OC)cc4CCN3C)cc2)cc1OC` (stereo not given), the T/C [7] was 90 % of control, the T/C (dose: 25.0 mg/kg/injection, schedule: Q01DX009 (ip), vehicle: other) was 92 % of control and the T/C (dose: 50.0 mg/kg/injection, schedule: Q01DX009 (ip), vehicle: other) was 86 % of control. For the same molecule, the T/C (dose: 200.0 mg/kg/injection, schedule: Q01DX009 (ip), vehicle: other) was 92 % of control and the T/C (dose: 400.0 mg/kg/injection, schedule: Q01DX009 (ip), vehicle: other) was 104 % of control.

`CCNC1=C(C(=O)OCC)C(=O)CO1` was tested, and the T/C [1] was 100 % of control, the T/C [2] was 100 % of control and the T/C [3] was 99 % of control.

With `O/N=C1\CCC2CCCCC2C1` (stereo not given) the T/C [8] was 103 % of control, the T/C [9] was 103 % of control and the T/C [10] was 104 % of control.

With `S=P(OC1CC2CCC1C2)(c1ccccc1)c1ccccc1` (stereo not given) the T/C (dose: 50.0 mg/kg/injection, schedule: Q01DX009 (ip), vehicle: saline with Tween-80) was 100 % of control, the T/C [11] was 103 % of control and the T/C [12] was 106 % of control.

For `O=S(=O)(CC(O)C(Cl)(Cl)Cl)N(Cc1ccccc1)Cc1ccccc1` (stereo not given), the T/C [13] was 103 % of control, the T/C [14] was 103 % of control and the T/C [15] was 97 % of control.

With `CC(C)(C)NC/C(C#N)=C\c1ccccc1` the T/C (dose: 25.0 mg/kg/injection, schedule: Q01DX001 (ip), vehicle: saline with Tween-80) was 102 % of control, the T/C (dose: 50.0 mg/kg/injection, schedule: Q01DX001 (ip), vehicle: saline with Tween-80) was 99 % of control and the T/C (dose: 100.0 mg/kg/injection, schedule: Q01DX001 (ip), vehicle: saline with Tween-80) was 97 % of control.

`Cc1cccc(C)c1OCc1nnc(SCC(=O)O)n1-c1c(C)cccc1C` was tested, and the T/C (dose: 50.0 mg/kg/injection, schedule: Q01DX005 (ip), vehicle: Klucel (hydroxypropylcellulose) (HPC)) was 102 % of control, the T/C (dose: 100.0 mg/kg/injection, schedule: Q01DX005 (ip), vehicle: Klucel (hydroxypropylcellulose) (HPC)) was 99 % of control and the T/C (dose: 200.0 mg/kg/injection, schedule: Q01DX005 (ip), vehicle: Klucel (hydroxypropylcellulose) (HPC)) was 93 % of control.

For `COC(=O)c1cn(C2OC(CO)C(O)C2O)c2ncnc(N)c12` (stereo not given), the T/C (dose: 3.75 mg/kg/injection, schedule: Q01DX005 (ip), vehicle: saline with Tween-80) was 103 % of control, the T/C (dose: 7.5 mg/kg/injection, schedule: Q01DX005 (ip), vehicle: saline with Tween-80) was 104 % of control and the T/C (dose: 15.0 mg/kg/injection, schedule: Q01DX005 (ip), vehicle: saline with Tween-80) was 117 % of control and 98 % of control. The T/C [1] was 100 % of control.

`COc1ccc(CCNC(=O)Cc2ccc(OC)c(OC)c2)cc1OC` was tested, and the T/C [11] was 100 % of control, the T/C [12] was 106 % of control and the T/C [16] was 123 % of control.

With `Cc1cc(N(CCCl)CCCl)ccc1C=Nc1ccc(F)cc1` the T/C (dose: 100.0 mg/kg/injection, schedule: Q04DX003 (ip), vehicle: saline with Tween-80) was 104 % of control, the T/C [12] was 155 % of control and the T/C (dose: 264.0 mg/kg/injection, schedule: Q04DX003 (ip), vehicle: saline with Tween-80) was 109 % of control. The T/C [16] was 165 % of control, the T/C (dose: 400.0 mg/kg/injection, schedule: Q04DX003 (ip), vehicle: saline with Tween-80) was 150 % of control and the T/C (dose: 600.0 mg/kg/injection, schedule: Q04DX003 (ip), vehicle: saline with Tween-80) was 168 % of control.

With `CCOC(=O)C1=C(C(=O)c2ccccc2)C(c2ccccc2[N+](=O)[O-])C(C(=O)c2ccccc2)=C(C(=O)OCC)N1` the T/C [1] was 101 % of control and the T/C [2] was 98 % of control.

In the case of `CC12CCC(C(Br)C1=O)C2(C)CBr` (stereo not given), the T/C [17] is reported as 103 % of control, the T/C [18] is reported as 104 % of control and the T/C [19] is reported as 92 % of control.

`OC12CC3C4CC(O1)C1C4CC3C12` (stereo not given) was tested, and the T/C (dose: 60.0 mg/kg/injection, schedule: Q01DX005 (ip), vehicle: saline) was 102 % of control, the T/C (dose: 120.0 mg/kg/injection, schedule: Q01DX005 (ip), vehicle: saline) was 109 % of control and the T/C (dose: 240.0 mg/kg/injection, schedule: Q01DX005 (ip), vehicle: saline) was 109 % of control.

For `CNC(=O)N(C)CP(=O)(O)OC`, the T/C [8] was 100 % of control, the T/C [9] was 98 % of control and the T/C [10] was 91 % of control.

With `COC(=O)CC1SC(=S)N(Cc2ccc(Cl)cc2)C1=O` (stereo not given) the T/C [20] was 94 % of control, the T/C [21] was 90 % of control and the T/C (dose: 240.0 mg/kg/injection, schedule: Q01DX005 (ip), vehicle: Klucel (hydroxypropylcellulose) (HPC)) was 90 % of control.

In the case of `NC1(C(=O)O)CCCC1C(=O)O` (stereo not given), the T/C [8] is reported as 99 % of control, the T/C [9] is reported as 99 % of control and the T/C [10] is reported as 90 % of control.

`CCCCNC1=CC(=S)NC(C)(C)C1` was tested, and the T/C [13] was 104 % of control, the T/C [14] was 86 % of control and the T/C [15] was 104 % of control.

With `O=c1ccc(=O)n(CCc2ccccn2)[nH]1` the T/C [13] was 112 % of control, the T/C [14] was 109 % of control and the T/C [15] was 108 % of control. For the same molecule, the T/C (dose: 400.0 mg/kg/injection, schedule: Q01DX009 (ip), vehicle: Klucel (hydroxypropylcellulose) (HPC)) was 106 % of control.

For `COC(=O)c1nc(=S)[nH]c(C(=O)OC)c1C(=O)c1ccc(O)c(OC)c1`, the T/C [20] was 104 % of control and the T/C [21] was 90 % of control.

`ClC(Cl)(Cl)Cl` was tested, and the T/C (dose: 0.37 % in 0.5 ml injection vol, schedule: Q01DX009 (ip), vehicle: water) was 103 % of control, the T/C (dose: 0.75 % in 0.5 ml injection vol, schedule: Q01DX009 (ip), vehicle: water) was 103 % of control and the T/C (dose: 1.5 % in 0.5 ml injection vol, schedule: Q01DX009 (ip), vehicle: water) was 104 % of control.

In the case of `O=C(CCCl)Nc1ccc(C(=O)CCc2cccc(NC(=O)CCCl)c2)cc1`, the T/C [1] is reported as 100 % of control, the T/C [2] is reported as 97 % of control and the T/C [3] is reported as 89 % of control.

In the case of `CCNCCNc1ccc(NCCNCC)c2c1C(=O)c1ccccc1C2=O`, the T/C (dose: 4.0 mg/kg/injection, schedule: Q01DX009 (ip), vehicle: acid diluted with saline) is reported as 157 % of control, the T/C (dose: 8.0 mg/kg/injection, schedule: Q01DX009 (ip), vehicle: acid diluted with saline) is reported as 174 % of control and the T/C [7] is reported as 168 % of control. For the same molecule, the T/C (dose: 16.0 mg/kg/injection, schedule: Q01DX009 (ip), vehicle: acid diluted with saline) was 166 % of control.

`c1cc2nc(c1)CSCc1cc3c(cc1CSCc1cccc(n1)CSC3)CSC2` was tested, and the T/C (dose: 50.0 mg/kg/injection, schedule: Q01DX009 (ip), vehicle: suspension in saline) was 102 % of control, the T/C (dose: 100.0 mg/kg/injection, schedule: Q01DX009 (ip), vehicle: suspension in saline) was 94 % of control and the T/C (dose: 200.0 mg/kg/injection, schedule: Q01DX009 (ip), vehicle: suspension in saline) was 86 % of control.

`CCOC(=O)C(N=Nc1ccc(Br)cc1C)C(C)=O` (stereo not given) was tested, and the T/C (dose: 25.0 mg/kg/injection, schedule: Q01DX005 (ip), vehicle: saline with Tween-80) was 98 % of control, the T/C [17] was 99 % of control and the T/C [18] was 98 % of control. For the same molecule, the T/C [19] was 89 % of control.

In the case of `COc1ccc(C2c3cc4c(cc3OC(O)C2C)OCO4)c(OC)c1` (stereo not given), the T/C [4] is reported as 97 % of control, the T/C [5] is reported as 97 % of control and the T/C [6] is reported as 95 % of control.

For `O=c1[nH]c2ccccc2c(=O)n1-c1cccs1`, the T/C (dose: 100.0 mg/kg/injection, schedule: Q04DX002 (ip), vehicle: saline) was 105 % of control, the T/C (dose: 200.0 mg/kg/injection, schedule: Q04DX002 (ip), vehicle: saline) was 105 % of control and the T/C (dose: 400.0 mg/kg/injection, schedule: Q04DX002 (ip), vehicle: saline) was 99 % of control.
